# Experimental data as given in US12030835B2, “Substituted amide compounds useful as farnesoid X receptor modulators” (BRISTOL-MYERS SQUIBB COMPANY, priority 2019, dated 2024).
# pEC50: −log10 of the molar value.
# Biological target: T1, human FXR (Homo sapiens, UniProt Q96RI1)
# T1 construct: expressed in transfected cells
# T1 sequence (Q96RI1 262-486 limits assumed): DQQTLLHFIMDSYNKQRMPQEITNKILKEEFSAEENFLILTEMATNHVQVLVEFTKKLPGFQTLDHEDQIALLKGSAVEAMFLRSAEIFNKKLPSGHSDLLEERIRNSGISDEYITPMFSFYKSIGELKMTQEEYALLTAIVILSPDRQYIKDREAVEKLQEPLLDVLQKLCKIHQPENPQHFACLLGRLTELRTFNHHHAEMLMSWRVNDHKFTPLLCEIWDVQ
# Experiment: transient human FXR/Gal4-luciferase reporter assay
# Format: cell-based
# Conditions: Gal4-hFXR (ligand binding domain) fusion transiently transfected in HEK293 Gal4-luciferase reporter cells; overnight incubation; response as percentage of 8 μM GW-4064 control
# Protocol: A Gal4-hFXR fusion construct reporter system was used as the primary assay to characterize compound activity. A construct including 5 copies of the Gal4 promoter response element upstream of a firefly luciferase reporter cDNA was stably expressed in HEK293 cells. This reporter cell line was maintained in Dulbecco's Modified Eagle's medium (DMEM; Gibco) supplemented with 1% penicillin-streptomycin (P/S) solution, 500 μg/ml Zeocin and 10% charcoal/dextran-treated fetal bovine serum (cs-FBS) at 37° C. in a humidified 5% CO2 atmosphere. Another plasmid was constructed in which the human cytomegalovirus promoter in the pcDNA3.1 vector directs the expression of the cDNA encoding a fusion protein comprised of the DNA binding domain from the Gal4 transcription factor fused to the ligand binding domain from human FXR.
# The day prior to transfection, the reporter cells in culture are detached from the plate with trypsin and plated into a T75 flask at a sufficient density to achieve approximately 90% confluence the next morning. The transfection reagents are prepared by separately diluting 25 μg of the pcDNA3.1-Gal4-FXR plasmid into 1.87 mL of Opti-MEM (Thermo-Fisher), and 40 μL of Lipofectamine 2000 (Thermo-Fisher) into 1.87 mL of Opti-MEM, and then adding the diluted DNA solution into the diluted Lipofectamine 2000 solution and incubating at room temperature for 15-20 minutes. The mixture is further diluted with 10 ml of a solution comprised of DMEM, 10% cs-FBS, and 1% P/S immediately prior to transferring to the cells. The maintenance culture media is aspirated from the cells and the final transfection mixture is added before the cells are incubated overnight at 37° C. in a humidified 5% CO2 atmosphere. This protocol can be scaled up, and the transiently transfected cells can be cryopreserved in an assay-ready format.
# For compound testing, 100 nL of the compounds (serial dilutions in DMSO) are dispensed with an Echo acoustic dispenser (Labcyte) into the wells of a Corning/Costar clear bottom 384-well white plate. The transfected cells are harvested, counted, and diluted such that 10-25,000 cells in 25 μL are plated into each well of the 384-well compound assay plate. The compound-treated cells are incubated overnight at 37° C. in a humidified 5% CO2 atmosphere. The next morning 25 μL of Steady-Glo (Promega) are added to each well of the plate, the mixture is incubated for 15 min. with shaking, and luminescence is measured on an Envision (Perkin Elmer) plate reader.
row,Structure (SMILES),pEC50
1,"CN(C)c1ccc(C23CCC(CN(C(=O)C4CCCCC4)c4cccc(/C=C/C(=O)O)c4)(CC2)CC3)cc1 [Example 2, (E)-3-(3-(N-((4-(4-(dimethylamino)phenyl)bicyclo[2.2.2]octan-1-yl)methyl)cyclohexanecarboxamido)phenyl)acrylic Acid]",5.82
2,"COC(=O)/C=C/c1cccc(N(CC23CCC(c4nc5ccccc5s4)(CC2)CC3)C(=O)C2CCCCC2)c1 [Example 34, Methyl (E)-3-(3-(N-((4-(benzo[d]thiazol-2-yl)bicyclo[2.2.2]octan-1-yl)methyl)cyclohexanecarboxamido)phenyl)acrylate]",6.65
3,"COC(=O)/C=C(\C)c1cccc(N(CC23CCC(c4ccc(OC)cc4)(CC2)CC3)C(=O)C2CCCCC2)c1 [Example 16, Methyl (E)-3-(3-(N-((4-(4-methoxyphenyl)bicyclo[2.2.2]octan-1-yl)methyl)cyclohexanecarboxamido)phenyl)but-2-enoate]",6.24
4,"COC(=O)/C=C/c1cccc(N(CC23CCC(c4nc(C)no4)(CC2)CC3)C(=O)C2CC2)c1 [Example 21, methyl (E)-3-(3-(N-((4-(3-methyl-1,2,4-oxadiazol-5-yl)bicyclo[2.2.2]octan-1-yl)methyl)cyclopropanecarboxamido)phenyl) acrylate]",5.61
5,"COC(=O)C1=Cc2cccc(N(CC34CCC(c5ccc(N6CCOCC6)cc5)(CC3)CC4)C(=O)C3CCCCC3)c2CC1 [Example 11, Methyl 5-(N-((4-(4-morpholinophenyl)bicyclo[2.2.2]octan-1-yl)methyl)cyclohexanecarboxamido)-3,4-dihydronaphthalene-2-carboxylate]",5.56
6,"COC(=O)/C=C/c1cccc(N(C(=O)C2CCCCC2)C(C)C23CCC(c4nc(C)no4)(CC2)CC3)c1 (single isomer, unassigned) [Example 47, Methyl (E)-3-(3-(N-(1-(4-(3-methyl-1,2,4-oxadiazol-5-yl)bicyclo[2.2.2]octan-1-yl)ethyl)cyclohexanecarboxamido)phenyl)acrylate]",6.82
7,"CC(C)(O)C#Cc1cccc(N(CC23CCC(c4nnc(C(C)(C)C)o4)(CC2)CC3)C(=O)C23CC(F)(C2)C3)c1 [Example 48, N-((4-(5-(tert-Butyl)-1,3,4-oxadiazol-2-yl)bicyclo[2.2.2]octan-1-yl)methyl)-3-fluoro-N-(3-(3-hydroxy-3-methylbut-1-yn-1-yl)phenyl)bicyclo[1.1.1]pentane-1-carboxamide]",7.52
8,"COC(=O)C1=Cc2cccc(N(CC34CCC(c5ccc(C6CC6)cc5)(CC3)CC4)C(=O)C3CC3)c2CC1 [Example 31, methyl 5-(N-((4-(4-cyclopropylphenyl)bicyclo[2.2.2]octan-1-yl)methyl)cyclopropanecarboxamido)-3,4-dihydronaphthalene-2-carboxylate]",6.10
9,"COC(=O)/C=C/c1cccc(N(CC23CCC(c4ccc(N(C)C)cc4)(CC2)CC3)C(=O)C2CCOCC2)c1 [Example 6, Methyl (E)-3-(3-(N-((4-(4-(dimethylamino)phenyl)bicyclo[2.2.2]octan-1-yl)methyl)tetrahydro-2H-pyran-4-carboxamido)phenyl)acrylate]",6.67
10,"COC(=O)/C=C/c1cccc(N(CC23CCC(c4ccc(N5CCCC5)cc4)(CC2)CC3)C(=O)C2CCCCC2)c1 [Example 4, (E)-methyl 3-(3-(N-((4-(4-(pyrrolidin-1-yl)phenyl)bicyclo[2.2.2]octan-1-yl)methyl)cyclohexanecarboxamido)phenyl)acrylate]",6.28
11,"COC(=O)/C=C/c1cccc(N(CC23CCC(c4noc(C)n4)(CC2)CC3)C(=O)C2CCCCC2)c1 [Example 44, Methyl (E)-3-(3-(N-((4-(5-methyl-1,2,4-oxadiazol-3-yl)bicyclo[2.2.2]octan-1-yl)methyl)cyclohexanecarboxamido)phenyl)acrylate]",7.06
12,"COC(=O)C1=Cc2cccc(N(CC34CCC(c5nc(C)no5)(CC3)CC4)C(=O)C3CCCCC3)c2CC1 [Example 40, Methyl 5-(N-((4-(3-methyl-1,2,4-oxadiazol-5-yl)bicyclo[2.2.2]octan-1-yl)methyl)cyclohexanecarboxamido)-3,4-dihydronaphthalene-2-carboxylate]",5.97
13,"COC(=O)C1=Cc2cccc(N(CC34CCC(c5ccc6c(cnn6C)c5)(CC3)OC4)C(=O)C3CCCCC3)c2CC1 [Example 45, Methyl 5-(N-((1-(1-methyl-1H-indazol-5-yl)-2-oxabicyclo[2.2.2]octan-4-yl)methyl)cyclohexanecarboxamido)-3,4-dihydronaphthalene-2-carboxylate]",5.94
14,"COC(=O)/C=C/c1cccc(N(CC23CCC(c4nc(C5CCOCC5)no4)(CC2)CC3)C(=O)C2CCCCC2)c1 [Example 43, Methyl (E)-3-(3-(N-((4-(3-(tetrahydro-2H-pyran-4-yl)-1,2,4-oxadiazol-5-yl)bicyclo[2.2.2]octan-1-yl)methyl)cyclohexanecarboxamido)phenyl)acrylate]",6.97
15,"COC(=O)/C=C/c1cccc(N(CC23CCC(c4ccc(C(C)C)cc4)(CC2)CC3)C(=O)C2CC2)c1 [Example 39, Methyl (E)-3-(3-(N-((4-(4-isopropylphenyl)bicyclo[2.2.2]octan-1-yl)methyl)cyclopropanecarboxamido)phenyl)acrylate]",5.85
16,"COC(=O)/C=C/c1cccc(N(CC23CCC(c4ccc(C(C)C)cc4)(CC2)CC3)C(=O)C2CCCCC2)c1 [Example 38, Methyl (E)-3-(3-(N-((4-(4-isopropylphenyl)bicyclo[2.2.2]octan-1-yl)methyl)cyclohexanecarboxamido)phenyl)acrylate]",6.71
17,"COC(=O)C1=Cc2cccc(N(CC34CCC(c5ccc(C6CC6)cc5)(CC3)CC4)C(=O)C3CCCCC3)c2CC1 [Example 30, Methyl 5-(N-((4-(4-cyclopropylphenyl)bicyclo[2.2.2]octan-1-yl)methyl)cyclohexanecarboxamido)-3,4-dihydronaphthalene-2-carboxylate]",6.71
18,"COC(=O)/C=C/c1cccc(N(CC23CCC(c4ccc(OC)cc4)(CC2)CC3)C(=O)C2CCCCC2)c1 [Example 15, Methyl (E)-3-(3-(N-((4-(4-methoxyphenyl)bicyclo[2.2.2]octan-1-yl)methyl)cyclohexanecarboxamido)phenyl)acrylate]",6.61
19,"COC(=O)/C=C(\C)c1cccc(N(CC23CCC(c4ccc(C5CC5)cc4)(CC2)CC3)C(=O)C2CCCCC2)c1 [Example 37, Methyl (E)-3-(3-(N-((4-(4-cyclopropylphenyl)bicyclo[2.2.2]octan-1-yl)methyl)cyclohexanecarboxamido)phenyl)but-2-enoate]",6.30
20,"COC(=O)/C=C/c1cccc(N(CC23CCC(c4ccc(C5CC5)cc4)(CC2)CC3)C(=O)C2CC2)c1 [Example 28, Methyl (E)-3-(3-(N-((4-(4-cyclopropylphenyl)bicyclo[2.2.2]octan-1-yl)methyl)cyclopropanecarboxamido)phenyl)acrylate]",6.02
21,"COC(=O)/C=C/c1cccc(N(CC23CCC(c4nc(C)no4)(CC2)CC3)C(=O)C2CCCCCC2)c1 [Example 24, methyl (E)-3-(3-(N-((4-(3-methyl-1,2,4-oxadiazol-5-yl)bicyclo[2.2.2]octan-1-yl)methyl)cycloheptanecarboxamido)phenyl) acrylate]",6.82
22,"COC(=O)/C=C(\C)c1cccc(N(CC23CCC(c4ccc(C5CC5)cc4)(CC2)CC3)C(=O)C2CC2)c1 [Example 36, Methyl (E)-3-(3-(N-((4-(4-cyclopropylphenyl)bicyclo[2.2.2]octan-1-yl)methyl)cyclopropanecarboxamido)phenyl)but-2-enoate]",5.75
23,"COC(=O)C1=Cc2cccc(N(CC34CCC(c5ccc(C6CC6)cc5)(CC3)CC4)C(=O)C(C)C)c2CC1 [Example 32, methyl 5-(N-((4-(4-cyclopropylphenyl)bicyclo[2.2.2]octan-1-yl)methyl)isobutyramido)-3,4-dihydronaphthalene-2-carboxylate]",6.33
24,"COC(=O)/C=C/c1cccc(N(CC23CCC(c4nc(N5CCOCC5)no4)(CC2)CC3)C(=O)C2CCCCC2)c1 [Example 42, Methyl (E)-3-(3-(N-((4-(3-morpholino-1,2,4-oxadiazol-5-yl)bicyclo[2.2.2]octan-1-yl)methyl)cyclohexanecarboxamido)phenyl)acrylate]",6.93
